Literature values, collected in US11376213B2, “Topical pharmaceutical formulation” (Futura Medical Developments Limited, priority 2016, dated 2022).
Where a name gives a salt, the structure may show the parent alone. Blank lines part the entries; values can stand above or below the molecule they belong to.

Tests used:
[1] = factor by which greater than piroxicam
[2] = not given; remark: listed apart in the source

efficacy index (ratio of skin penetration to potency) relative to piroxicam [1]: ~10^3
SMILES: O=C(O)Cc1ccccc1Nc1c(Cl)cccc1Cl [diclofenac]

saturated solubility in propylene glycol: approximately 50 % w/w
SMILES: O=C(O)Cc1ccccc1Nc1c(Cl)cccc1Cl [sodium salt of diclofenac acid, diclofenac sodium]

saturated solubility in polyethylene glycol (polyethylene glycol): 11.18 % w/w | saturated solubility in propylene glycol: 1.16 % w/w
SMILES: O=C(O)Cc1ccccc1Nc1c(Cl)cccc1Cl [diclofenac acid]

aqueous solubility [2]: extremely low
SMILES: CC(C)Cc1ccc(C(C)C(=O)O)cc1 (centres unmarked) [Ibuprofen, isobutylphenylpropionic acid]
